≈ marks a conversion by molar mass, not a printed value.
Tests used:
[1] = system: Staphylococcus aureus; assay: Antibacterial activity against Staphylococcus aureus infected in iv dosed mouse; assay type: functional
[2] = system: Staphylococcus aureus; assay: Antibacterial activity against Staphylococcus aureus infected in po dosed mouse; assay type: functional
[3] = system: Staphylococcus aureus; assay: Ratio of MIC for quinolone-resistant Staphylococcus aureus MS5935 to MIC for quinolone-sensitive Staphylococcus aureus MS5935; assay type: functional
[4] = system: Escherichia coli; assay: Antibacterial activity against Escherichia coli ATCC 25922 by micro-broth dilution method; assay type: functional
[5] = system: Staphylococcus aureus; assay: Antibacterial activity against Staphylococcus aureus Smith by micro-broth dilution method; assay type: functional
[6] = system: Acinetobacter baumannii; assay: Antibacterial activity against Acinetobacter baumannii IID876 by micro-broth dilution method; assay type: functional
[7] = system: Staphylococcus aureus; assay: Antibacterial activity against methicillin resistant Staphylococcus aureus OIT971 by micro-broth dilution method; assay type: functional
[8] = system: Streptococcus pneumoniae; assay: Antibacterial activity against Streptococcus pneumoniae IID553 by micro-broth dilution method; assay type: functional
[9] = system: Pseudomonas aeruginosa; assay: Antibacterial activity against Pseudomonas aeruginosa PAO1 by micro-broth dilution method; assay type: functional
[10] = target: T1, Voltage-gated inwardly rectifying potassium channel KCNH2 (Homo sapiens, UniProt Q12809); assay: Displacement of MK499 from human ERG
T1 sequence (Q12809 whole entry): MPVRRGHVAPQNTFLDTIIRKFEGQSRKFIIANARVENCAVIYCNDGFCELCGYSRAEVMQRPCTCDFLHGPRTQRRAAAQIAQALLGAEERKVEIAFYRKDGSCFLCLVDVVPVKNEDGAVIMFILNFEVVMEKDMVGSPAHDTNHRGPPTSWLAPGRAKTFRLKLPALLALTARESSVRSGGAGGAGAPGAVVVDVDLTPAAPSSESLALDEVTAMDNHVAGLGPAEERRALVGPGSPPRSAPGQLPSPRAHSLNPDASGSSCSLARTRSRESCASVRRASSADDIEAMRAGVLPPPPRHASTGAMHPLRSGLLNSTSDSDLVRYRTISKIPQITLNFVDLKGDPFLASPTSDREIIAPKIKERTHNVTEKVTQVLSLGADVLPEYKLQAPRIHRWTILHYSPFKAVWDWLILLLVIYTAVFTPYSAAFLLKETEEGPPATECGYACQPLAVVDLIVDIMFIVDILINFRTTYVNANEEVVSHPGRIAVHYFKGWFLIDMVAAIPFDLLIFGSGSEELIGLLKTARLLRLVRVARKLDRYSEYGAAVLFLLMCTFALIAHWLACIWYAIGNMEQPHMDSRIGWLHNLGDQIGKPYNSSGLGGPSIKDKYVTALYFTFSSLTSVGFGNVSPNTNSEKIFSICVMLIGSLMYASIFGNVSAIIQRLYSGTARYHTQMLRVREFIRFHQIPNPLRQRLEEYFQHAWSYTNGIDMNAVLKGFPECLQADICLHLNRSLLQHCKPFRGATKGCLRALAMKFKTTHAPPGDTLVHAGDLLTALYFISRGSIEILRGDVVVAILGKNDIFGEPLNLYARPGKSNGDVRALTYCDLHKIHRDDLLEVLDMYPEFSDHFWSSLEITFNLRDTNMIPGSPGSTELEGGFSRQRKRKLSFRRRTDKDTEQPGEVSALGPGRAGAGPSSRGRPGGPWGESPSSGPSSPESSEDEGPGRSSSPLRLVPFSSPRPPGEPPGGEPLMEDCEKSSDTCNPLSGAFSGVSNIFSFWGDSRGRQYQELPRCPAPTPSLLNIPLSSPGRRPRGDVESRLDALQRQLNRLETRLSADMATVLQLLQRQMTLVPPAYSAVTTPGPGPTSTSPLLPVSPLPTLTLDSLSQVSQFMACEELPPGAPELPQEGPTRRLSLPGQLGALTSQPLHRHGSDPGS

[11] = system: Enterococcus faecium; assay: Antibacterial activity against Enterococcus faecium VanA by micro-broth dilution method; assay type: functional
[12] = target: T1, Voltage-gated inwardly rectifying potassium channel KCNH2; assay: Inhibition of human ERG expressed in CHO cells by patch express assay; assay type: cell-based
[13] = Staphylococcus aureus, iv, read-out: ED50
[14] = Staphylococcus aureus, po, read-out: ED50
[15] = Escherichia coli, ATCC 25922, read-out: MIC
[16] = Staphylococcus aureus, Smith, read-out: MIC
[17] = Acinetobacter baumannii, IID876, read-out: MIC
[18] = Staphylococcus aureus, OIT971, read-out: MIC
[19] = Streptococcus pneumoniae, IID553, read-out: MIC
[20] = Pseudomonas aeruginosa, PAO1, read-out: MIC
[21] = Enterococcus faecium, VanA, read-out: MIC

SMILES	Ratio [3]	MIC [4, 15] [µg/mL]	MIC [5, 16] [µg/mL]	MIC [6, 17] [µg/mL]	MIC [7, 18] [µg/mL]	MIC [8, 19] [µg/mL]	MIC [9, 20] [µg/mL]	IC50 [10] [µM]	MIC [11, 21] [µg/mL]	further results
COc1ccc2ncc(F)c(C[C@H](O)C34CCC(NCc5ccc6c(n5)NC(=O)CO6)(CC3)CO4)c2n1.Cl										ED50 [1, 13]: 2.5 mg/kg; ED50 [2, 14]: 2.2 mg/kg
COc1ccc2ncc(F)c(CCC34CCC(NCc5ccc6c(n5)NC(=O)CO6)(CC3)CO4)c2n1	2									
CO/N=C(/Cc1c(F)cnc2ccc(OC)nc12)C12CCC(NCc3ccc4c(n3)NC(=O)CO4)(CC1)CO2	<4	16 (≈ 29.8 µM)	16 (≈ 29.8 µM)	16 (≈ 29.8 µM)	16 (≈ 29.8 µM)	16 (≈ 29.8 µM)	16 (≈ 29.8 µM)	2.5	16 (≈ 29.8 µM)	
COc1ccc2ncc(F)c(C[C@H](OC)C34CCC(NCc5ccc6c(n5)NC(=O)CO6)(CC3)CO4)c2n1		16 (≈ 30.6 µM)	0.25 (≈ 0.477 µM)	8 (≈ 15.3 µM)	0.25 (≈ 0.477 µM)	2 (≈ 3.82 µM)	16 (≈ 30.6 µM)		8 (≈ 15.3 µM)	
COc1ccc2ncc(F)c(CC(=O)C34CCC(NCc5ccc6c(n5)NC(=O)CO6)(CC3)CO4)c2n1.Cl										ED50 [1, 13]: 5.1 mg/kg; ED50 [2, 14]: 6.4 mg/kg
COc1ccc2ncc(F)c(C/C(=N\O)C34CCC(NCc5ccc6c(n5)NC(=O)CO6)(CC3)CO4)c2n1	<4	2 (≈ 3.83 µM)	0.5 (≈ 0.957 µM)	2 (≈ 3.83 µM)	0.5 (≈ 0.957 µM)	2 (≈ 3.83 µM)	2 (≈ 3.83 µM)	1.6	2 (≈ 3.83 µM)	
COc1ccc2ncc(F)c([C@@H](O)[C@H](O)C34CCC(NCc5ccc6c(n5)NC(=O)CO6)(CC3)CO4)c2n1	<4	16 (≈ 30.4 µM)	0.25 (≈ 0.476 µM)	2 (≈ 3.81 µM)	0.25 (≈ 0.476 µM)	2 (≈ 3.81 µM)	32 (≈ 60.9 µM)	60	8 (≈ 15.2 µM)	
COc1ccc2ncc(F)c(C/C(=N/O)C34CCC(NCc5ccc6c(n5)NC(=O)CO6)(CC3)CO4)c2n1	<4	16 (≈ 30.6 µM)	16 (≈ 30.6 µM)	16 (≈ 30.6 µM)	16 (≈ 30.6 µM)	16 (≈ 30.6 µM)	16 (≈ 30.6 µM)	5.4	16 (≈ 30.6 µM)	
COc1ccc2ncc(F)c(C(=O)CC34CCC(NCc5ccc6c(n5)NC(=O)CO6)(CC3)CO4)c2n1	<4	4 (≈ 7.88 µM)	0.06 (≈ 0.118 µM)	1 (≈ 1.97 µM)	0.06 (≈ 0.118 µM)	0.25 (≈ 0.493 µM)	32 (≈ 63.1 µM)	1.2	2 (≈ 3.94 µM)	IC50 [12]: 3.7 µM
COc1ccc2ncc(F)c(CC(=O)C34CCC(NCc5ccc6c(n5)NC(=O)CO6)(CC3)CO4)c2n1		16 (≈ 31.5 µM)	0.13 (≈ 0.256 µM)	2 (≈ 3.94 µM)	0.13 (≈ 0.256 µM)	0.25 (≈ 0.493 µM)	16 (≈ 31.5 µM)		4 (≈ 7.88 µM)	
COc1ccc2ncc(F)c(CC(F)C34CCC(NCc5ccc6c(n5)NC(=O)CO6)(CC3)CO4)c2n1 (racemic)		8 (≈ 15.6 µM)	0.25 (≈ 0.489 µM)	8 (≈ 15.6 µM)	0.25 (≈ 0.489 µM)	1 (≈ 1.95 µM)	8 (≈ 15.6 µM)		8 (≈ 15.6 µM)	
COc1ccc2ncc(F)c(C(CC34CCC(NCc5ccc6c(n5)NC(=O)CO6)(CC3)CO4)C(=O)O)c2n1 (racemic)	<4	32 (≈ 59.5 µM)	1 (≈ 1.86 µM)	32 (≈ 59.5 µM)	1 (≈ 1.86 µM)	4 (≈ 7.44 µM)	32 (≈ 59.5 µM)	1	32 (≈ 59.5 µM)	
COc1ccc2ncc(F)c(CC(NS(C)(=O)=O)C34CCC(NCc5ccc6c(n5)NC(=O)CO6)(CC3)CO4)c2n1 (racemic)		32 (≈ 54.5 µM)	32 (≈ 54.5 µM)	32 (≈ 54.5 µM)	32 (≈ 54.5 µM)	32 (≈ 54.5 µM)	32 (≈ 54.5 µM)		32 (≈ 54.5 µM)	
CCOC(=O)C(CC12CCC(NCc3ccc4c(n3)NC(=O)CO4)(CC1)CO2)c1c(F)cnc2ccc(OC)nc12 (racemic)		32 (≈ 56.6 µM)	2 (≈ 3.54 µM)	32 (≈ 56.6 µM)	2 (≈ 3.54 µM)	8 (≈ 14.1 µM)	32 (≈ 56.6 µM)		32 (≈ 56.6 µM)	
COc1ccc2ncc(F)c(CC(NOC(C)=O)C34CCC(NCc5ccc6c(n5)NC(=O)CO6)(CC3)CO4)c2n1 (racemic)		32 (≈ 56.5 µM)	2 (≈ 3.53 µM)	32 (≈ 56.5 µM)	2 (≈ 3.53 µM)	16 (≈ 28.2 µM)	32 (≈ 56.5 µM)		32 (≈ 56.5 µM)	
COc1ccc2ncc(F)c(CC(OCCO)C34CCC(NCc5ccc6c(n5)NC(=O)CO6)(CC3)CO4)c2n1 (racemic)		32 (≈ 57.8 µM)	2 (≈ 3.61 µM)	32 (≈ 57.8 µM)	2 (≈ 3.61 µM)	8 (≈ 14.5 µM)	32 (≈ 57.8 µM)		32 (≈ 57.8 µM)	

SMILES	Ratio [3]	MIC [4, 15] [µg/mL]	MIC [5, 16] [µg/mL]	MIC [6, 17] [µg/mL]	MIC [7, 18] [µg/mL]	MIC [8, 19] [µg/mL]	MIC [9, 20] [µg/mL]	IC50 [10] [µM]	MIC [11, 21] [µg/mL]	further results
COc1ccc2ncc(F)c(CC(C)(O)C34CCC(NCc5ccc6c(n5)NC(=O)CO6)(CC3)CO4)c2n1 (racemic)	<4	8 (≈ 15.3 µM)	0.06 (≈ 0.115 µM)	2 (≈ 3.82 µM)	0.06 (≈ 0.115 µM)	0.5 (≈ 0.955 µM)	32 (≈ 61.1 µM)	6.1	4 (≈ 7.64 µM)	
COc1ccc2ncc(F)c(CC(O)(C(F)(F)F)C34CCC(NCc5ccc6c(n5)NC(=O)CO6)(CC3)CO4)c2n1 (racemic)		32 (≈ 55.4 µM)	0.5 (≈ 0.866 µM)	32 (≈ 55.4 µM)	0.5 (≈ 0.866 µM)	4 (≈ 6.93 µM)	32 (≈ 55.4 µM)		32 (≈ 55.4 µM)	
COc1ccc2ncc(F)c(C(CO)CC34CCC(NCc5ccc6c(n5)NC(=O)CO6)(CC3)CO4)c2n1 (racemic)		32 (≈ 61.1 µM)	1 (≈ 1.91 µM)	16 (≈ 30.6 µM)	1 (≈ 1.91 µM)	2 (≈ 3.82 µM)	32 (≈ 61.1 µM)		16 (≈ 30.6 µM)	
COc1ccc2ncc(F)c(C(C)(O)CC34CCC(NCc5ccc6c(n5)NC(=O)CO6)(CC3)CO4)c2n1 (racemic)		32 (≈ 61.1 µM)	1 (≈ 1.91 µM)	32 (≈ 61.1 µM)	1 (≈ 1.91 µM)	4 (≈ 7.64 µM)	32 (≈ 61.1 µM)		16 (≈ 30.6 µM)	
COc1ccc2ncc(F)c(CC(OCC(=O)O)C34CCC(NCc5ccc6c(n5)NC(=O)CO6)(CC3)CO4)c2n1 (racemic)		32 (≈ 56.4 µM)	4 (≈ 7.05 µM)	32 (≈ 56.4 µM)	4 (≈ 7.05 µM)	32 (≈ 56.4 µM)	32 (≈ 56.4 µM)		32 (≈ 56.4 µM)	
COc1ccc2ncc(F)c(C(O)CC34CCC(NCc5ccc6c(n5)NC(=O)CO6)(CC3)CO4)c2n1.Cl (single isomer, unassigned; (+))										ED50 [1, 13]: 5.9 mg/kg; ED50 [2, 14]: 6.4 mg/kg
COc1ccc2ncc(F)c(CC(N)C34CCC(NCc5ccc6c(n5)NC(=O)CO6)(CC3)CO4)c2n1 (single isomer, unassigned; (+))		1 (≈ 1.97 µM)	0.25 (≈ 0.492 µM)	0.25 (≈ 0.492 µM)	0.25 (≈ 0.492 µM)	2 (≈ 3.93 µM)	16 (≈ 31.5 µM)		8 (≈ 15.7 µM)	
COc1ccc2ncc(F)c(CC(N)C34CCC(NCc5ccc6c(n5)NC(=O)CO6)(CC3)CO4)c2n1.Cl (single isomer, unassigned; (+))										ED50 [1]: 25 mg/kg; ED50 [2]: 50 mg/kg
COc1ccc2ncc(F)c(C(O)CC34CCC(NCc5ccc6c(n5)NC(=O)CO6)(CC3)CO4)c2n1 (single isomer, unassigned; (+))	<4	8 (≈ 15.7 µM)		1 (≈ 1.96 µM)			16 (≈ 31.4 µM)	4	4 (≈ 7.85 µM)	MIC [5]: 0.13 µg/mL (≈ 0.255 µM); MIC [7]: 0.13 µg/mL (≈ 0.255 µM); MIC [8]: 1 µg/mL (≈ 1.96 µM)
COc1ccc2ncc(F)c([C@H]3OC(=O)O[C@@H]3C34CCC(NCc5ccc6c(n5)NC(=O)CO6)(CC3)CO4)c2n1 (single isomer, unassigned; (+))	<4	16 (≈ 29 µM)	2 (≈ 3.63 µM)	16 (≈ 29 µM)	2 (≈ 3.63 µM)	16 (≈ 29 µM)	16 (≈ 29 µM)	11.2	16 (≈ 29 µM)	
COc1ccc2ncc(F)c(C(O)CC34CCC(NCc5ccc6c(n5)NC(=O)CO6)(CC3)CO4)c2n1.Cl (single isomer, unassigned; (-))										ED50 [1]: 3.7 mg/kg; ED50 [2]: 4.8 mg/kg
COc1ccc2ncc(F)c(CC(N)C34CCC(NCc5ccc6c(n5)NC(=O)CO6)(CC3)CO4)c2n1 (single isomer, unassigned; (-))										MIC [4]: 1 µg/mL (≈ 1.97 µM); MIC [5]: 0.13 µg/mL (≈ 0.256 µM); MIC [6]: 0.25 µg/mL (≈ 0.492 µM); MIC [7]: 0.13 µg/mL (≈ 0.256 µM); MIC [8]: 2 µg/mL (≈ 3.93 µM); MIC [9]: 8 µg/mL (≈ 15.7 µM); MIC [11]: 4 µg/mL (≈ 7.87 µM)
COc1ccc2ncc(F)c([C@H](O)[C@@H](O)C34CCC(NCc5ccc6c(n5)NC(=O)CO6)(CC3)CO4)c2n1 (single isomer, unassigned; (-))	<4	16 (≈ 30.4 µM)	1 (≈ 1.9 µM)	2 (≈ 3.81 µM)	1 (≈ 1.9 µM)	8 (≈ 15.2 µM)	64 (≈ 122 µM)	36.1	16 (≈ 30.4 µM)	
COc1ccc2ncc(F)c(C(O)CC34CCC(NCc5ccc6c(n5)NC(=O)CO6)(CC3)CO4)c2n1 (single isomer, unassigned; (-))								1.3		MIC [4]: 4 µg/mL (≈ 7.85 µM); MIC [5]: 0.03 µg/mL (≈ 0.0589 µM); MIC [6]: 1 µg/mL (≈ 1.96 µM); MIC [7]: 0.03 µg/mL (≈ 0.0589 µM); MIC [8]: 0.25 µg/mL (≈ 0.491 µM); MIC [9]: 16 µg/mL (≈ 31.4 µM); MIC [11]: 2 µg/mL (≈ 3.93 µM)
COc1ccc2ncc(F)c([C@@H]3OC(=O)O[C@H]3C34CCC(NCc5ccc6c(n5)NC(=O)CO6)(CC3)CO4)c2n1 (single isomer, unassigned; (-))	<4	16 (≈ 29 µM)	0.25 (≈ 0.453 µM)	16 (≈ 29 µM)	0.25 (≈ 0.453 µM)	2 (≈ 3.63 µM)	16 (≈ 29 µM)	4.9	8 (≈ 14.5 µM)	
COc1ccc2ncc(F)c(CC(N)C34CCC(NCc5ccc6c(n5)NC(=O)CO6)(CC3)CO4)c2n1.Cl (stereo in doubt)										ED50 [1]: 11 mg/kg; ED50 [2]: 21 mg/kg

Reference: ChEMBL document CHEMBL3751822, “C1C2-linker substituted 1,5-naphthyridine analogues of oxabicyclooctane-linked NBTIs as broad-spectrum antibacterial agents (part 7)” (Medchemcomm, 2015)
